In brackets after ≈: the same amount, converted by molar mass. Where two headings read alike, the source gives them in different places.
Tests used:
E. coli XL-1 blue MRF' = experiment: MIC, broth microdilution, E. coli XL-1 blue MRF'; assay type: cell-based, Escherichia coli; settings: E. coli XL-1 blue MRF'
Protocol: (§1) The minimum inhibitory concentration (MIC) was determined using the broth microdilution method according to the antimicrobial susceptibility testing standards of the clinical and laboratory standards institute ([Clinical and Laboratory Standards Institute [CLSI], 2012]). Ultrapure water and non-inoculated broth were used as controls. In one case, a final concentration of 10 μM vancomycin was included with the vancomycin analog or control antibiotic.

E. faecalis VRE 6 = experiment: MIC, broth microdilution, vancomycin-resistant E. faecalis VRE 6 (VanA); assay type: cell-based, Enterococcus faecalis; settings: for MIC: read-out: MIC; for MIC-fold improvement vs. vancomycin: VRE 6
Method in brief: (§2)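 Read-out: lowest concentration inhibiting growth in broth microdilution, CLSI method. Water and broth-only wells acted as controls; in one case 10 μM vancomycin (final) was present with the compound.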

E. faecalis VRE 53 = experiment: MIC, broth microdilution, vancomycin-resistant E. faecalis VRE 53 (VanA); assay type: cell-based, Enterococcus faecalis; settings: for MIC: read-out: MIC; for MIC-fold improvement vs. vancomycin: VRE 53
Method in brief: as §2

E. faecalis VSE 1 = experiment: MIC, broth microdilution, vancomycin-sensitive E. faecalis (VSE 1); assay type: cell-based, Enterococcus faecalis; settings: for MIC: read-out: MIC; for MIC-fold improvement vs. vancomycin: VSE 1
Method in brief: as §2

B. subtilis PSB3 = experiment: MIC, broth microdilution, B. subtilis PSB3; assay type: cell-based, Bacillus subtilis
Protocol: as §1

S. aureus VRSA = experiment: MIC, broth microdilution, vancomycin-resistant S. aureus (VRSA); assay type: cell-based, Staphylococcus aureus; settings: for MIC: Staphylococcus aureus VRSA, read-out: MIC; for MIC-fold improvement vs. vancomycin: VRSA, ratio of MIC of vancomycin and MIC of analogue
Method in brief: as §2

S. aureus VISA/HIP5827 = experiment: MIC, broth microdilution, vancomycin-intermediate S. aureus VISA HIP5827; assay type: cell-based, Staphylococcus aureus; settings: for MIC: Staphylococcus aureus VISA/HIP5827, read-out: MIC; for MIC-fold improvement vs. vancomycin: VISA/HIP5827, ratio of MIC of vancomycin and MIC of analogue
Method in brief: as §2

[1] = tested on: Clostridium difficile AIU ribotype 027; experiment: MIC, plate drop assay, C. difficile AIU ribotype 027; assay type: cell-based; settings: for MIC-fold improvement vs. vancomycin: C. difficile AIU ribotype 027
Method in brief: (§3)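 Lawns of each strain were made in soft BHI agar (0.4%) supplemented with CaCl2⋅2H2O and MgCl2⋅6H2O. Twofold compound dilutions (10 μL) were spotted, air-dried and incubated overnight at 37°C anaerobically; MIC read as cleared spots, in triplicate with water as negative control.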

[2] = tested on: human cervix carcinoma (HeLa) cells; experiment: Cytostatic activity, HeLa cell proliferation; assay type: cell-based; settings: mean ± SD of three experiments; highest concentration tested 250 µM; 4 days; read-out: Toxicity (IC50) HeLa
Method in brief: (§4)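 Test compounds, serially diluted, received an equal volume of cell suspension at 300,000–500,000 cells/mL. After 37°C incubation (2 days for L1210, 3 for CEM, 4 for HeLa), cells were enumerated by Coulter counting and 50%-inhibitory concentrations calculated per cell type.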

E. faecalis VRE 29 = experiment: MIC, broth microdilution, vancomycin-resistant E. faecalis VRE 29 (VanA); assay type: cell-based, Enterococcus faecalis; settings: for MIC: Enterococcus faecalis VRE 29 (vancomycin-resistant), read-out: MIC; for MIC-fold improvement vs. vancomycin: VRE 29, ratio of MIC of vancomycin and MIC of analogue
Method in brief: as §2

MRSA KS6 = experiment: MIC, broth microdilution, MRSA KS6; assay type: cell-based, Staphylococcus aureus; settings: for MIC-fold improvement vs. vancomycin: MRSA KS6, ratio of MIC of vancomycin and MIC of analogue; for MIC: Staphylococcus aureus MRSA KS6, read-out: MIC
Method in brief: as §2

E. faecalis VRE 37 = experiment: MIC, broth microdilution, vancomycin-resistant E. faecalis VRE 37 (VanA); assay type: cell-based, Enterococcus faecalis; settings: for MIC: Enterococcus faecalis VRE 37 (vancomycin-resistant), read-out: MIC
Method in brief: as §2

MRSA KS89 = experiment: MIC, broth microdilution, MRSA KS89; assay type: cell-based, Staphylococcus aureus; settings: for MIC-fold improvement vs. vancomycin: MRSA KS8, ratio of MIC of vancomycin and MIC of analogue; for MIC: Staphylococcus aureus MRSA KS8, read-out: MIC
Method in brief: as §2

[3] = tested on: S. aureus VSSA (ATCC 6538); experiment: MIC, broth microdilution, vancomycin-sensitive S. aureus (VSSA/MSSA, ATCC 6538); assay type: cell-based, Staphylococcus aureus; settings: for MIC: Staphylococcus aureus VSSA, read-out: MIC; for MIC-fold improvement vs. vancomycin: VSSA, ratio of MIC of vancomycin and MIC of analogue
Method in brief: as §2

[4] = tested on: human T-lymphocyte (CEM) cells; experiment: Cytostatic activity, CEM cell proliferation; assay type: cell-based; settings: mean ± SD of three experiments; highest concentration tested 250 µM; 3 days; read-out: Toxicity (IC50) CEM
Method in brief: as §4

[5] = tested on: L1210, CEM and HeLa cell lines; experiment: Cytostatic activity, average or summary over L1210, CEM and HeLa; assay type: cell-based; settings: average of L1210, CEM and HeLa; read-out: Toxicity (IC50) Average
Method in brief: as §4

[6] = tested on: Murine leukemia (L1210) cells; experiment: Cytostatic activity, L1210 cell proliferation; assay type: cell-based; settings: mean ± SD of three experiments; highest concentration tested 250 µM; 2 days; read-out: Toxicity (IC50) L1210
Method in brief: as §4

[7] = tested on: Clostridium difficile ATJ ribotype 014/20; experiment: MIC, plate drop assay, C. difficile ATJ ribotype 014/20; assay type: cell-based; settings: for MIC-fold improvement vs. vancomycin: C. difficile ATJ ribotype 014/20
Method in brief: as §3

MRSA KS2 = experiment: MIC, broth microdilution, MRSA KS2; assay type: cell-based, Staphylococcus aureus; settings: for MIC-fold improvement vs. vancomycin: MRSA KS2, ratio of MIC of vancomycin and MIC of analogue; for MIC: Staphylococcus aureus MRSA KS2, read-out: MIC
Method in brief: as §2

MRSA KS1 = experiment: MIC, broth microdilution, MRSA KS1; assay type: cell-based, Staphylococcus aureus; settings: for MIC-fold improvement vs. vancomycin: MRSA KS1, ratio of MIC of vancomycin and MIC of analogue; for MIC: Staphylococcus aureus MRSA KS1, read-out: MIC
Method in brief: as §2

[8] = ratio of MIC of vancomycin and MIC of analogue
[9] = Enterococcus faecalis VRE 6 (vancomycin-resistant)
[10] = Enterococcus faecalis VRE 53 (vancomycin-resistant)
[11] = Enterococcus faecalis VSE 1 (vancomycin-sensitive)

SMILES	MIC (S. aureus VRSA)	MIC-fold improvement vs. vancomycin (S. aureus VRSA)	MIC (S. aureus VISA/HIP5827)	MIC-fold improvement vs. vancomycin (S. aureus VISA/HIP5827)	MIC (E. faecalis VRE 6; [9])	MIC-fold improvement vs. vancomycin (E. faecalis VRE 6; [8])	MIC-fold improvement vs. vancomycin [1]	IC50 [2]	MIC (E. faecalis VRE 29)	MIC-fold improvement vs. vancomycin (E. faecalis VRE 29)	MIC-fold improvement vs. vancomycin (MRSA KS6)	MIC (MRSA KS6)	MIC (E. faecalis VRE 37)	MIC-fold improvement vs. vancomycin (MRSA KS89)	MIC (MRSA KS89)	MIC [3]	MIC-fold improvement vs. vancomycin [3]	IC50 [4]	IC50 [5]	MIC (E. faecalis VRE 53; [10])	also measured
C#CCNC(=O)[C@H]1NC(=O)[C@H]2NC(=O)[C@H](NC(=O)[C@@H]3NC(=O)[C@H](CC(N)=O)NC(=O)[C@H](NC(=O)[C@@H](CC(C)C)NC)[C@H](O)c4ccc(c(Cl)c4)Oc4cc3cc(c4O[C@@H]3O[C@H](CO)[C@@H](O)[C@H](O)[C@H]3O[C@H]3C[C@](C)(N)[C@H](O)[C@H](C)O3)Oc3ccc(cc3Cl)[C@H]2O)c2ccc(O)c(c2)-c2c(O)cc(O)cc21 [Vanc-G]	–	–	–	–	–	–	–	–	–	–	–	–	–	–	–	–	–	–	–	–	MIC (E. coli XL-1 blue MRF'): 12.5 µM (≈ 18.6 µg/mL); MICvanc/MICi (E. coli XL-1 blue MRF'; [8]): 8; MICvanc/MICi (E. faecalis VRE 6; E. faecalis VRE 6, ratio of MIC of vancomycin and MIC of analogue): 2; MIC (E. faecalis VRE 6; E. faecalis VRE 6): 100 µM (≈ 149 µg/mL); MICvanc/MICi (E. faecalis VRE 53; E. faecalis VRE 53, ratio of MIC of vancomycin and MIC of analogue): 8; MIC (E. faecalis VRE 53; E. faecalis VRE 53): 50 µM (≈ 74.3 µg/mL); MICvanc/MICi (E. faecalis VSE 1; E. faecalis VSE 1, ratio of MIC of vancomycin and MIC of analogue): 4; MIC (E. faecalis VSE 1; E. faecalis VSE 1): 0.39 µM (≈ 0.58 µg/mL); MIC (B. subtilis PSB3): 0.78 µM (≈ 1.16 µg/mL); MICvanc/MICi (B. subtilis PSB3; [8]): 0.5
CN[C@H](CC(C)C)C(=O)N[C@H]1C(=O)N[C@@H](CC(N)=O)C(=O)N[C@H]2C(=O)N[C@H]3C(=O)N[C@H](C(=O)N[C@H](C(=O)NCC(=O)Nc4ccc(Nc5ccccc5)cc4)c4cc(O)cc(O)c4-c4cc3ccc4O)[C@H](O)c3ccc(c(Cl)c3)Oc3cc2cc(c3O[C@@H]2O[C@H](CO)[C@@H](O)[C@H](O)[C@H]2O[C@H]2C[C@](C)(N)[C@H](O)[C@H](C)O2)Oc2ccc(cc2Cl)[C@H]1O [Vanc-43]	1.56 µM (≈ 2.61 µg/mL)	64	1.56 µM (≈ 2.61 µg/mL)	4	1.56 µM (≈ 2.61 µg/mL)	128	29	> 250 µM	6.25 µM (≈ 10.5 µg/mL)	64	0.25	3.13 µM (≈ 5.24 µg/mL)	6.25 µM (≈ 10.5 µg/mL)	2	0.39 µM (≈ 0.652 µg/mL)	0.39 µM (≈ 0.652 µg/mL)	2	> 250 µM	> 250 µM	25 µM (≈ 41.8 µg/mL)	MIC-fold improvement vs. vancomycin (E. faecalis VRE 37; VRE 37, ratio of MIC of vancomycin and MIC of analogue): 64; MIC-fold improvement vs. vancomycin (E. faecalis VRE 53; [8]): 16; IC50 [6]: > 250 µM; MIC (E. faecalis VSE 1; [11]): 0.39 µM (≈ 0.652 µg/mL); MIC-fold improvement vs. vancomycin (E. faecalis VSE 1; [8]): 4; MIC-fold improvement vs. vancomycin [7]: 22; MIC-fold improvement vs. vancomycin (MRSA KS2): 2; MIC (MRSA KS2): 0.39 µM (≈ 0.652 µg/mL); MIC-fold improvement vs. vancomycin (MRSA KS1): 2; MIC (MRSA KS1): 0.39 µM (≈ 0.652 µg/mL)
CNC(CC(C)C)C(=O)NC1C(=O)NC(CC(N)=O)C(=O)NC2C(=O)NC3C(=O)NC(C(=O)NC(C(=O)NCCCNC(=O)c4cc5ccccc5o4)c4cc(O)cc(O)c4-c4cc3ccc4O)C(O)c3ccc(c(Cl)c3)Oc3cc2cc(c3OC2OC(CO)C(O)C(O)C2OC2CC(C)(N)C(O)C(C)O2)Oc2ccc(cc2Cl)C1O (stereo not shown) [Vanc-25]	3.13 µM (≈ 5.16 µg/mL)	32	0.39 µM (≈ 0.643 µg/mL)	16	0.78 µM (≈ 1.29 µg/mL)	256	4	98 ± 32 µM	6.25 µM (≈ 10.3 µg/mL)	64	2	0.39 µM (≈ 0.643 µg/mL)	12.5 µM (≈ 20.6 µg/mL)	2	0.39 µM (≈ 0.643 µg/mL)	0.39 µM (≈ 0.643 µg/mL)	2	> 250 µM	199 µM	25 µM (≈ 41.2 µg/mL)	MIC-fold improvement vs. vancomycin (E. faecalis VRE 53; [8]): 16; IC50 [6]: > 250 µM; MIC (E. faecalis VSE 1; [11]): 0.39 µM (≈ 0.643 µg/mL); MIC-fold improvement vs. vancomycin (E. faecalis VSE 1; [8]): 4; MIC-fold improvement vs. vancomycin [7]: 5.6; MIC-fold improvement vs. vancomycin (MRSA KS2): 2; MIC (MRSA KS2): 0.39 µM (≈ 0.643 µg/mL); MIC-fold improvement vs. vancomycin (MRSA KS1): 2; MIC (MRSA KS1): 0.39 µM (≈ 0.643 µg/mL)
CN[C@H](CC(C)C)C(=O)N[C@H]1C(=O)N[C@@H](CC(N)=O)C(=O)N[C@H]2C(=O)N[C@H]3C(=O)N[C@H](C(=O)N[C@H](C(=O)NCCNC(=O)/C=C/c4ccc(F)cc4)c4cc(O)cc(O)c4-c4cc3ccc4O)[C@H](O)c3ccc(c(Cl)c3)Oc3cc2cc(c3O[C@@H]2O[C@H](CO)[C@@H](O)[C@H](O)[C@H]2O[C@H]2C[C@](C)(N)[C@H](O)[C@H](C)O2)Oc2ccc(cc2Cl)[C@H]1O [Vanc-22]	3.13 µM (≈ 5.13 µg/mL)	32	1.56 µM (≈ 2.56 µg/mL)	4	1.56 µM (≈ 2.56 µg/mL)	128	7	76 ± 11 µM	12.5 µM (≈ 20.5 µg/mL)	32	2	0.39 µM (≈ 0.639 µg/mL)	12.5 µM (≈ 20.5 µg/mL)	2	0.39 µM (≈ 0.639 µg/mL)	0.39 µM (≈ 0.639 µg/mL)	2	> 250 µM	192 µM	25 µM (≈ 41 µg/mL)	MIC ([1]; C. difficile AIU ribotype 027, plate drop assay): 6.25 µM (≈ 10.2 µg/mL); MIC-fold improvement vs. vancomycin (E. faecalis VRE 53; [8]): 16; IC50 [6]: > 250 µM; MIC (E. faecalis VSE 1; [11]): 0.39 µM (≈ 0.639 µg/mL); MIC-fold improvement vs. vancomycin (E. faecalis VSE 1; [8]): 4; MIC-fold improvement vs. vancomycin [7]: 5.6; MIC ([7]; C. difficile ATJ ribotype 014/20, plate drop assay): 6.25 µM (≈ 10.2 µg/mL); MIC-fold improvement vs. vancomycin (MRSA KS2): 2; MIC (MRSA KS2): 0.39 µM (≈ 0.639 µg/mL); MIC-fold improvement vs. vancomycin (MRSA KS1): 2; MIC (MRSA KS1): 0.39 µM (≈ 0.639 µg/mL)
